US20120184517A1, “TREATMENT OF DISEASES WITH ALTERED SMOOTH MUSCLE CONTRACTILITY” (priority 2009, published 2012)

What was measured:
[1] = biological target: T1, BK currents in tracheal smooth muscle (Mus musculus, UniProt Q08460); test: Whole cell patch clamp of acutely isolated tracheal smooth muscle cells; type: cell-based, murine; set-up: unit of the concentration uncertain; details: rottlerin (1 (unit uncertain)), FIG. 11A
T1 construct: murine tracheal smooth muscle cells were acutely isolated and whole cell patch clamped; endogenous in cells; host or cells: acutely isolated murine tracheal smooth muscle cells
Description: In this experiment, murine tracheal smooth muscle cells were acutely isolated and whole cell patch clamped as previously described (Zakharov, S. et al., (2005) J Biol Chem 280, 30882-30887).
Murine tracheal smooth muscle cells were isolated using the following protocol. Trachea were removed, cut longitudinally, the epithelium removed (brushing with sterile cotton bud) and the cartilage removed by cutting. The isolated trachea were dissected in culture medium and cut into several pieces (1-2 mm^2). After addition of 0.5 mg/ml papain (Roche, Nutley, N.J.) and 1 mg/ml dithiothreitol, the cells were dissociated at 37° C. for 20 minutes, gently shaking, followed by the addition of 0.1 mg/ml liberase enzyme 2 (Roche, Nutley, N.J.) for 30 minutes at 37° C. (5% CO2). The suspension was then pipetted gently several times to disburse cells, the cell suspension strained via a nylon cell strainer, and the suspension was gently triturated to disburse single cells. The cell suspension was then centrifuged at 700×g for 5 minutes and the pellet resuspended in 500 μl Krebs solution. The cells were plated onto laminin-coated tissue culture dishes. BK currents were recorded using whole-cell and outside-out macropatches.

[2] = biological target: PKCα (Homo sapiens, UniProt P17252); details: rottlerin 20 μM, 0.1 mM ATP, phosphatidylserine; cited from earlier work
[3] = biological target: casein kinase II (Homo sapiens, UniProt P68400); details: cited from earlier work
[4] = system: murine femoral arterial rings; type: cell-based
Protocol: Current was monitored with a ramp protocol; holding potential −60 mV, with ramp from −80 mV to +150 mV over 500 ms. […] Analysis was performed using tail analysis with normalization as previously described (Xia, et al., Multiple regulatory sites in large-conductance calcium-activated potassium channels. Nature, 2002. 418(6900):880-4). […] Identification of the BKCa channel was determined by conductance and inhibition by iberiotoxin and TEA. […] Murine femoral arterial rings were isolated and placed in a wire myograph. […] The figures shown are representative of 4 similar experiments. Error bars are standard error of the mean (SEM). Asterisk (*) indicates p<0.001.

[5] = system: rats; details: 10-20 mg/kg/day×6 days; cited from earlier work
[6] = system: OVA-sensitized mice; test: OVA induced acute asthma model, repeated i.p. rottlerin
Protocol: In this example, the acute asthma model in ovalbumin (OVA) treated mice was used (Jia, Y., R. Foronjy, and J. D'Armiento, Altered airway inflammatory response to cigarette smoke in ovalbumin-sensitized mice. Am J. Resp and Critical Care Medicine (2006) p. Suppl:A339.). […] Mice received an intraperitoneal injection (i.p) of 100 μg ovalbumin adsorbed to 2 mg aluminum (200 μl final volume) on day 0 and again on day 7. Control mice were injected with endotoxin free PBS. On alternative days 14-22, mice received a 20 minute aerosol challenge of either endotoxin-free PBS (controls) or 2% (w/v) OVA in endotoxin-PBS, using a lumiscope 6610 ultrasonic nebulizer (Lumiscope, East Rutherford, N.J.).
Two days after the last aerosol challenge, AHR was measured by invasive restrained whole body plethysmography (rWBP) (BUXCO Electronics Inc., Troy, N.Y.) in response to inhaled methacholine (Sigma, St. Louis, Mo.). For dynamic lung resistance, measurements were performed using the PLY3011 chamber (BUXCO). Mice were anesthetized with a cocktail of 25 mg per kg body weight ketamine hydrochloride (Bioniche Pharma, Lake Forest, Ill.) and 2.5 mg per kg body weight xylazine (Llyod Laboratories, Inc., Barangay Tikay, Malolos Bulacan, Philippines), tracheotomized, and immediately intubated with an 18-gauge catheter, followed by mechanical ventilation (Columbus Instruments International, Columbus, Ohio). Respiratory frequency was set at 150 breaths/minute with a tidal volume of 0.2 ml. Increasing concentrations of methacholine (0-50 mg/ml) were administered at the rate of 20 puffs per 10 seconds, with each puff of aerosol delivery lasting 10 ms, via a nebulizer aerosol system with a 4-6 μm aerosol particle size generated by a nebulizer head (Aeroneb®, Aerogen Ltd., Dangan, Galway, Ireland). The nebulizer is attached to a small aerosol block, which is placed in the inspiratory flow line. In this way the aerosol is injected directly into the airway. Baseline resistance was restored before administration of the subsequent doses of methacholine. The flow and pressure signals were measured and processed together to determine resistance and compliance using a software analyzer provided in BioSystem XA software (BUXCO Electronics Inc., Troy, N.Y.).
After measurement of airway responsiveness in vivo, mice were sacrificed and their serum collected and stored at −80° C. until analysis. Serum levels of OVA-specific IgE were measured by sandwich ELISA as described previously (Kanamaru, F., et al. “Costimulation via Glucocorticoid-Induced TNF Receptor in Both Conventional and CD25^+ Regulatory CD4^+ T Cells.” J Immunol., Vol. 172, pages 7306-7314 (2004)).
Bronchoalveolar lavage (BAL) was performed by injection of 1 ml saline (37° C.) through a tracheal cannula into the lung. Cells in the BAL were centrifuged and resuspended in cold PBS. For differential BAL cell counts, cytospin preparations were made and per cytospin, 200 cells were counted and differentiated by standard morphology and staining characteristics.
IL-4, IL-5 and IL-13 ELISAs were performed according to the manufacturer's instructions (R & D systems, Minneapolis, Minn.). The detection limits of the ELISAs were 60 pg/ml for IL-4, 32 pg/ml for IL-5, 15 pg/ml IL-13.
In this system mice are anesthetized and ventilated and through a cannula in the trachea, tracheal pressure and flow are continuously monitored and traditional pulmonary mechanics can be measured. This system is preferable over the method of oscillatory mechanics due to the consistency of measurements and the ability to directly measure pressure and flow. Changes in pressure, flow, and volume were recorded, and RL was calculated from peak values after each challenge (FIG. 14A).
After determining the airway hyperresponsiveness, lungs were lavaged with PBS and total cell count with differential was determined on the bronchoalveolar cells (BAL).

[7] = system: 3T3-L1 adipocytes; details: read-out: IC50 of insulin-induced glucose uptake; cited from earlier work

T1 sequence (Q08460 whole entry): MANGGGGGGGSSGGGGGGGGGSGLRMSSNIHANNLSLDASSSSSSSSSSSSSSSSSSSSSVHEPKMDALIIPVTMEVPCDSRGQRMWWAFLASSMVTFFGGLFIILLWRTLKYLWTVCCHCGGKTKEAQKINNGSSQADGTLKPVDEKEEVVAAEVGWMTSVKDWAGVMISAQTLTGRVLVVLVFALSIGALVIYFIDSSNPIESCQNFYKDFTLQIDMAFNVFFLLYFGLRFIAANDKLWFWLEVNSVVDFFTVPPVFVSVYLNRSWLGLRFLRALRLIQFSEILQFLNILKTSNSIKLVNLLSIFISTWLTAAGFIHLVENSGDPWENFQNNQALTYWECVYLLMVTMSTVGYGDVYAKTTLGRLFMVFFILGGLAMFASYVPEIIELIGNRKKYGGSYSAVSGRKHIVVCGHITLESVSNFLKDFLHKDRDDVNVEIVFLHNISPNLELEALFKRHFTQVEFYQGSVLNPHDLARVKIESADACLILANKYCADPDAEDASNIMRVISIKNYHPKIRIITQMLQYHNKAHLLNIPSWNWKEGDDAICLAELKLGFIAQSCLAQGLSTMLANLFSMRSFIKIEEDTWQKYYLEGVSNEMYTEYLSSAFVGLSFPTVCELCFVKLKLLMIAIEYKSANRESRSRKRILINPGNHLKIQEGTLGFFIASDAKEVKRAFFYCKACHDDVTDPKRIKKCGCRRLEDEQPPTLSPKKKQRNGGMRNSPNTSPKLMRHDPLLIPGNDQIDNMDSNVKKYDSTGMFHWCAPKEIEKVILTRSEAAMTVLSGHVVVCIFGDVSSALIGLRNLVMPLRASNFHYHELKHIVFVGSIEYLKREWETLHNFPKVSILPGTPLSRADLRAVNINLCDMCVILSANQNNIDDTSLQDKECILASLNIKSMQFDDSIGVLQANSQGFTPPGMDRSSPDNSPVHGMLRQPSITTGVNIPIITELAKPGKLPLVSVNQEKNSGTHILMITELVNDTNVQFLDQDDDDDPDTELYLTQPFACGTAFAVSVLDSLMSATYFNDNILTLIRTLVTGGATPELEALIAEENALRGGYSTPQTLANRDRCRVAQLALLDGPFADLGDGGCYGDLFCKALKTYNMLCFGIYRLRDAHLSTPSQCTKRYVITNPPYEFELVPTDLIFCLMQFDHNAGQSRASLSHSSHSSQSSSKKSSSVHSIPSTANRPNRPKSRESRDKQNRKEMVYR
T1 sequence (Q8CAE3 whole entry partner): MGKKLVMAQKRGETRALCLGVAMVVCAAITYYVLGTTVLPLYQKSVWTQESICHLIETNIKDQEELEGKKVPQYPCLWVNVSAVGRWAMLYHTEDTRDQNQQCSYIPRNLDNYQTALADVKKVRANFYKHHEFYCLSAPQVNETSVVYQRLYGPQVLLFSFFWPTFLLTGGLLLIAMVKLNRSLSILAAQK
casein kinase II, sequence (P68400 whole entry): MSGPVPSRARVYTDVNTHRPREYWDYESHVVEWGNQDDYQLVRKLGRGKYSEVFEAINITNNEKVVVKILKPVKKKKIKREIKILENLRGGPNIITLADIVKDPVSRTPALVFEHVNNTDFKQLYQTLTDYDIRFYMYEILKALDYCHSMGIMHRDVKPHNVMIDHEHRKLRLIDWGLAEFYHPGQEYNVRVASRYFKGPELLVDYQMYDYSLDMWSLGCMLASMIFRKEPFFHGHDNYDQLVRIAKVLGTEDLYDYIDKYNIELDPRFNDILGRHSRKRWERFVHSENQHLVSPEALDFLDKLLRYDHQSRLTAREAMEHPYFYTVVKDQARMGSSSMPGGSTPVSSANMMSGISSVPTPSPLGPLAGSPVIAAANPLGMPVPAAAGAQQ

For `CC(=O)c1c(O)c(C)c(O)c(Cc2c(O)c3c(c(C(=O)/C=C/c4ccccc4)c2O)OC(C)(C)C=C3)c1O` [rottlerin, 5,7-dihydroxy-2,2-dimethyl-6-(2,4,6-trihydroxy-3-methyl-5-acetylbenzyl)-8-cinnamoyl-I,2-chromene], the BK currents [1] is given as “significantly activated”, the “effect on PKCα activity” value [2] is given as “virtually no effect” and the IC50 [3] is given as 30 to 100 µM. For the same compound, the “PE induced constriction of the vessel” value ([4]; rottlerin 0.5 μM (FIG. 7D legend)) was “significantly inhibited”, the “effect on phenylephrine mediated contraction” value ([4]; rottlerin 1 μM) was “no significant effect” and the “reduction of phenylephrine mediated contraction” value ([4]; rottlerin 4 μM) was “more than 50%”. For the same compound, the fertility rate [5] was “reduce the fertility rate”, the “serum OVA specific IgE” value ([6]; OVA+rottlerin versus OVA, 48 hours after last challenge) was “similar” and the “Th2 cytokines IL-4, IL-5 and IL-13 in BALF” value ([6]; OVA-sensitized animals) was “significantly reduced”. For the same compound, the “number of inflammatory leukocytes in BAL” value ([6]; OVA-sensitized mice) was “significant decrease”, the “number of macrophages and eosinophils in BAL” value ([6]; OVA-sensitized mice) was “marked reduction” and the airway constriction ([6]; OVA-sensitized mice, 25 mg/ml methacholine challenge, rottlerin 5 mg per kg i.p.) was “decrease in airway constriction”. The “airway resistance (RL)” value ([6]; OVA-sensitized mice, MCh 25-50 mg/ml, rottlerin 5 mg per kg i.p.) was “decrease in their airway resistance”, the “airway constriction with isoproterenol” value ([6]; OVA-sensitized mice, isoproterenol i.p. 20, 40 and 100 μg after 50 mg/ml methacholine) was “significant decrease in airway constriction” and the “cellular infiltrate in the peribronchial and perivascular regions” value ([6]; OVA-sensitized/challenged animals, H & E stain) was “significant reduction”. For the same compound, the airway resistance ([6]; PBS-sensitized animals) was “no effect”, the “adverse effect, morbidity, mortality” value ([6]; rottlerin 5 mg per kg i.p., repeated) was “no significant adverse effect” and the IC50 [7] was 10 µM.
